IC50 data for 12 molecules are collected here from patent US12391701B2, “Chromene-based compounds, methods and uses thereof” (University of Minho, priority 2019, dated 2025).

As usually defined, the IC50 is the midpoint of a concentration-inhibition curve.

Holding throughout (type): cell-based
For assay [1], the system named is breast cancer cell line MCF-7. As to the kind of experiment: Cell viability assay (MTS), MCF-7. As to conditions: Homo sapiens, MCF7; 72 h incubation. On the procedure: (§1) In an embodiment, the cell growth inhibition and IC50 values of the synthesised and isolated chromene-based compounds were determined as part of the evaluation of the antiproliferative activity of the isolated agents. A complete study on the structure-activity relationship was performed for all the synthesised compounds. The antiproliferative activity against MCF-7 breast cancer cell lines were analysed. […] The non-neoplastic cell line MCF-10A was also used to determine the selectivity of the compounds for the tumour cells. For compounds with an IC50 value (concentration required to reduce cell viability by 50%) higher than 20 μM, the IC50 value was not determined. Selectivity index (SI) was calculated in order to evaluate the cytotoxicity of the tested compounds.
(§2) In an embodiment, three human breast cancer cell lines Hs578T, MDA-MB-468 and MCF-7, and a normal breast cell line MCF-10A, were obtained from ATCC (American Type Culture Collection). The cancer cell lines were cultured in Dulbecco's modified Eagle medium, 4.5 g/l glucose (DMEM, Gibco) supplemented with 10% heating inactivated Fetal Bovine Serum (FBS, Gibco) and 1% antibiotic solution (Penicillin-Streptomycin, Gibco). The normal cell line was cultured in Dulbecco's Modified Eagle Medium: Nutrient Mixture F-12 (DMEM/F12, Gibco) supplemented with 5% heating inactivated FBS (Gibco), 1% antibiotic solution (Penicillin-Streptomycin, Gibco), 1% steroid hormone (Hydrocortisone, Sigma-Aldrich), 0.1% peptide hormone (Insulin, Sigma-Aldrich) and 0.01% protein complex (Cholera Toxin, Gibco). Two distinct human acute myeloid leukemia (AML) cell lines, HL-60 (FAB M2) and KG-1 (erythroleukemia-FAB M6), and one human lymphoblastic leukemia (ALL) cell line, Jurkat (T cell type), were also used. These three cell lines were obtained from German Collection of Microorganisms and Cell cultures (DMSZ®, Deutsche Sammlung von Mikroorganismen and Zellkulturen in German). Cells were cultured in RPMI 1640 medium (Biochrom®-Merck Millipore) supplemented with 10% heating inactivated FBS (Biochrom®-Merck Millipore) and 1% antibiotic/antimitotic mixture (Invitrogen®). Three human glioblastoma (GBM) cell line models, two established and commercially available cell lines (U87MG and GAMG, kind gift from Rui M. Reis) and one primary GBM culture (GLIB) were also used. GBM cells were cultures in DMEM (Biochrom-Merck Millipore), all supplemented with 10% FBS. The Renal cell carcinoma cell lines A498, 786-O, Caki-2 and HK2 were obtained from ATCC. The cancer cell line A498 was cultured in MEM medium (Biochrom®-Merck Millipore), 786-O was cultured in RPMI 1640 medium (Biochrom®-Merck Millipore), Caki-2 was cultured in Mc Coys medium (Biochrom®-Merck Millipore) and HK2 was cultured in RPMI 1640 medium (Biochrom®-Merck Millipore). All the media were supplemented with 10% heat inactivated FBS (Biochrom®-Merck Millipore) and 1% antibiotic/antimitotic mixture (Invitrogen®). All cells were grown in a humidified incubator at 37° C. and 5% CO2. For all assays, DMSO (Dimethyl Sulfoxide, Sigma-Aldrich) controls were used.
(§3) In an embodiment, cell viability assays were performed. MCF-7, Hs578T and MCF-10A cells were plated in triplicate in 96-multiwell culture plates, at 3000 cells […], or 5000 cells […] for MDA-MB-468 (100 μL/well). The cells were then allowed to adhere in complete medium, over a period of 18-20 hours. Cells were subsequently treated with 7 different concentrations (from 0.1 to 40 μM or 5 to 60 μM) of compounds or control in fresh medium. HL-60, KG-1 and Jurkat cell lines were plated in 96-multiwell culture plates at 50.000 cells/100 μL per well and treated with different concentrations (from 0.001 to 2 μM) of the compounds described (or control). Cells were plated, in triplicate, at an initial density of 2000 cells/well for GAMG, 4000 cells/well for GL18 and 6000 cells/well for U87MG, in 96-well plates, and allowed to adhere for 18-20 hours. […]

Assay [2] has as its system non-neoplastic cell line MCF-10A. As to the kind of experiment: Cell viability assay (MTS), MCF-10A. As to conditions: Homo sapiens, 72 h incubation. The method, then:
as §1, §2, §3

The subject of assay [3] is renal carcinoma cell line 786-O. As to the kind of experiment: Cell viability (sulforhodamine B), 786-O. The settings on record: Homo sapiens, 786-0; Table 5. The method, then:
(§4) In an embodiment, the antiproliferative activity of the compounds was further determined against renal carcinoma cell lines and non-neoplastic kidney cell line.
as §2
(§5) In an embodiment, cell viability assays were performed. MCF-7, Hs578T and MCF-10A cells were plated in triplicate in 96-multiwell culture plates, at 3000 cells per mL, or 5000 cells per mL for MDA-MB-468 (100 μL/well). The cells were then allowed to adhere in complete medium, over a period of 18-20 hours. Cells were subsequently treated with 7 different concentrations (from 0.1 to 40 μM or 5 to 60 μM) of compounds or control in fresh medium. HL-60, KG-1 and Jurkat cell lines were plated in 96-multiwell culture plates at 50.000 cells/100 μL per well and treated with different concentrations (from 0.001 to 2 μM) of the compounds described (or control). Cells were plated, in triplicate, at an initial density of 2000 cells/well for GAMG, 4000 cells/well for GL18 and 6000 cells/well for U87MG, in 96-well plates, and allowed to adhere for 18-20 hours. Cells were then treated with different concentrations of the compounds (0.005 to 100 μM) or with control. A498 and 786-O cells were plated at 2000 cells per mL, Caki-2 cells were plated at 3000 cells per mL and HK2 cells were plated at 2000 cells per mL in triplicate, in 96-multiwell culture plates (100 μL/well), and allowed to adhere over a period of 18-20 hours in complete medium. The cells were then treated with 7 different concentrations (from 0.1 to 40 μM or 5 to 60 μM) of compounds or control in fresh medium. […]

Assay [4] relates to renal carcinoma cell line Caki-2. As to the kind of experiment: Cell viability (sulforhodamine B), Caki-2. As to conditions: Homo sapiens, Table 5. The method, then: as §4, §2, §5
Assay [5] concerns renal carcinoma cell line A498. As to the kind of experiment: Cell viability (sulforhodamine B), A498. As to conditions: Homo sapiens, Table 5. On the procedure: as §4, §2, §5
For assay [6], the system named is non-neoplastic cell line (HK2). As to the kind of experiment: Cell viability, HK2. The method, then:
as §4, §2, §5

Setting [7] is: Table 6, read-out: IC50 (μM) HK2.

Read-outs that look alike come from different tables or passages of the source.

Turning to `COc1cccc2c1Oc1nc(-c3ccc(F)cc3)[nH]c1C2` [MC409, 2-(4-fluorophenyl)-5-methoxy-3,9-dihydrochromeno[2,3-d]imidazoles], the IC50 was found to be 650 nM in assay [1]; 14300 nM in assay [2]; 495 nM in assay [3]; 359 nM in assay [4]; 560 nM in assay [5]; 3.49 µM in assay [6] (Table 5, read-out: IC50 HK2). The IC50 in assay [6] (setting [7]) was 3.49 µM.
With `COc1ccc(-c2nc3c([nH]2)Cc2cccc(OC)c2O3)c(Br)c1O` [MC416, 2-bromo-6-methoxy-3-(5-methoxy-3,9-dihydrochromeno[2,3-]imidazol-2-yl)phenol], the half-maximal inhibitory concentration (IC50) in assay [1] was determined as 1040 nM; in assay [2] it was 1990 nM; in assay [3], 3140 nM; in assay [4], 2540 nM; in assay [6] (Table 5, read-out: IC50 HK2) it was 4.72 µM; in assay [6] (setting [7]) it was 4.72 µM.
Regarding `COc1cccc2c1Oc1nc(-c3ccc(Br)cc3)[nH]c1C2` [MC408, 2-(4-bromophenyl)-5-methoxy-3,9-dihydrochromeno[2,3-d]imidazoles], the half-inhibitory concentration (IC50) in assay [1] came out at 620 nM; in assay [2], 2990 nM; in assay [3] it was 64 nM; in assay [4] it was 89 nM; in assay [5] it was 140 nM; in assay [6] (Table 5, read-out: IC50 HK2), 3.49 µM. The IC50 in assay [6] (setting [7]) is 3.49 µM.
Turning to `CCOc1ccc(-c2nc3c([nH]2)Cc2cccc(OC)c2O3)cc1` [MC415, 2-(4-ethoxyphenyl)-5-methoxy-3,9-dihydrochromeno[2,3-d]imidazoles], the IC50 is 1640 nM in assay [1]; 1900 nM in assay [2]; 221 nM in assay [3]; 62 nM in assay [4]; 120 nM in assay [5]; 5.24 µM in assay [6] (Table 5, read-out: IC50 HK2). Besides, the half-inhibitory concentration (IC50) in assay [6] (setting [7]) stood at 5.24 µM.
Turning to `COc1cccc2c1Oc1nc(-c3ccc(Br)cc3)[nH]c1C2C1c2cccc(OC)c2Oc2nc(-c3ccc(Br)cc3)[nH]c21` (centres unmarked) [MC421, 2,2′-bis(4-bromophenyl)-5,5′-dimethoxy-1,1,9,9′-tetrahydro-9,9′-bichromeno[2,3-]imidazoles], the concentration for half-maximal inhibition (IC50) in assay [1] is 310 nM; in assay [2], greater than 30000 nM; in assay [3], 77 nM; in assay [4] it was 431 nM; in assay [5], 340 nM; in assay [6] (Table 5, read-out: IC50 HK2), 2.49 µM. The IC50 in assay [6] (setting [7]) came out at 2.49 µM.
In the case of `COc1cccc2c1Oc1nc(-c3ccccc3F)[nH]c1C2` [MC407, 2-(2-fluorophenyl)-5-methoxy-3,9-dihydrochromeno[2,3-d]imidazoles], the concentration for half-maximal inhibition (IC50) in assay [1] was found to be 670 nM; in assay [2] it was 3930 nM; in assay [3] it was 673 nM; in assay [4], 433 nM; in assay [5] it was 1360 nM; in assay [6] (Table 5, read-out: IC50 HK2), 1.03 µM.
In the case of `COc1cccc2c1Oc1nc(-c3ccc(F)cc3)[nH]c1C2C1c2cccc(OC)c2Oc2nc(-c3ccc(F)cc3)[nH]c21` (centres unmarked) [MC406, 2,2′-bis(4-fluorophenyl)-5,5′-dimethoxy-1,1,9,9′-tetrahydro-9,9′-bichromeno[2,3-]imidazoles], the half-maximal inhibitory concentration (IC50) was 200 nM in assay [1]; 12700 nM in assay [2]; 84 nM in assay [3]; 178 nM in assay [4]; 1160 nM in assay [5]; 0.31 µM in assay [6] (Table 5, read-out: IC50 HK2).
In the case of `COc1cccc2c1Oc1nc(-c3ccc(O)cc3)[nH]c1C2` [MC413, 4-(5-methoxy-3,9-dihydrochromeno[2,3-d]imidazol-2-yl)phenol], the IC50 in assay [1] was 1090 nM; in assay [2], greater than 20000 nM; in assay [3], 728 nM; in assay [4] it was 381 nM; in assay [5], 960 nM; in assay [6] (Table 5, read-out: IC50 HK2), 10.3 µM. Also, the half-inhibitory concentration (IC50) in assay [6] (setting [7]) came to 10.3 µM.
Regarding `COc1ccccc1-c1nc2c([nH]1)Cc1cccc(OC)c1O2` [MC411, 5-methoxy-2-(2-methoxyphenyl)-3,9-dihydrochromeno[2,3-]imidazoles], the IC50 in assay [1] was 1710 nM; in assay [2] it was 6820 nM; in assay [3] it was 3730 nM; in assay [4] it was 3960 nM; in assay [6] (Table 5, read-out: IC50 HK2), 4.73 µM; in assay [6] (setting [7]), 4.73 µM.
Take `COc1cccc2c1Oc1nc(-c3cc(F)cc(F)c3O)[nH]c1C2` [MC410, 2,4-difluoro-6-(5-methoxy-3,9-dihydrochromeno[2,3-d]imidazol-2-yl)phenol]: the IC50 is 3530 nM in assay [1]; greater than 30000 nM in assay [2]; 446 nM in assay [3]; 8530 nM in assay [4]; 23.1 µM in assay [6] (Table 5, read-out: IC50 HK2); 23.1 µM in assay [6] (setting [7]).
Consider `COc1cccc2c1Oc1nc(-c3ccccc3F)[nH]c1C2C1c2cccc(OC)c2Oc2nc(-c3ccccc3F)[nH]c21` (centres unmarked) [MC369, 2,2′-bis(2-fluorophenyl)-5,5′-dimethoxy-1,1,9,9′-tetrahydro-9,9′-bichromeno[2,3-]imidazoles], for which the concentration for half-maximal inhibition (IC50) is 260 nM in assay [1]; greater than 20000 nM in assay [2]; 53 nM in assay [3]; 109 nM in assay [4]; 0.83 µM in assay [6] (Table 5, read-out: IC50 HK2).
`COc1cccc2c1Oc1nc(-c3ccccc3)[nH]c1C2` [MC350, 5-methoxy-2-phenyl-3,9-dihydrochromeno[2,3-d]imidazoles]: the IC50 in assay [1] came out at 740 nM; in assay [2], 8460 nM; in assay [3], 513 nM; in assay [4], 394 nM; in assay [5], 830 nM; in assay [6] (Table 5, read-out: IC50 HK2), 21.5 µM. Also, the concentration for half-maximal inhibition (IC50) in assay [6] (setting [7]) was 21.5 µM.
